One assay relates to RS4;11 cells. Nature of the assay: RS4;11 cell viability assay (CellTiter Glo).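 Also: acute lymphoblastic leukemia line RS4,11, EC50 derived from percentage of viable cells after treatment relative to untreated controls, cell killing taken as a measure of Bcl-2 inhibition.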 The settings on record: Homo sapiens, RS4-11, 48 h, 50,000 cells per well, 10% human serum, 48 hours; read-out: RS4; 11 EC50 Values. It counts as cell-based, human. Background: ATP-based viability assays read luminescence as a measure of living cells.
Method: The acute lymphoblastic leukemia (ALL) cell line RS4;11 was used as the primary human cell line to assess the cellular activity of Bcl-2 selective agents in vitro and their efficacy in vivo.
Cell cytotoxicity EC50 values were assessed using CellTiter Glo (Promega) according to the manufacturer's recommendations. The EC50 values were determined as a percentage of viable cells following treatment compared to the untreated control cells.
Regarding `CC1(C)CCC(CN2CCN(c3ccc(C(=O)NS(=O)(=O)c4ccc(NC5CCN(C6CCOC6)CC5)c([N+](=O)[O-])c4)c(Oc4cnc5[nH]ccc5c4)c3)CC2)=C(c2ccc(Cl)cc2)C1` (centres unmarked) [Example 143, 4-(4-{[2-(4-chlorophenyl)-4,4-dimethylcyclohex-1-en-1-yl]methyl}piperazin-1-yl)-N-({3-nitro-4-[(1-tetrahydrofuran-3-ylpiperidin-4-yl)amino]phenyl}sulfonyl)-2-(1H-pyrrolo[2,3-b]pyridin-5-yloxy)benzamide], the EC50 stood at 19.1 nM.

For `CC1(C)CCC(CN2CCN(c3ccc(C(=O)NS(=O)(=O)c4ccc(NCC5CCOCC5)c(S(=O)(=O)C(F)(F)F)c4)c(Oc4ccc5[nH]ccc5c4)c3)CC2)=C(c2ccc(Cl)cc2)C1` [Example 94, 4-(4-{[2-(4-chlorophenyl)-4,4-dimethylcyclohex-1-en-1-yl]methyl}piperazin-1-yl)-2-(1H-indol-5-yloxy)-N-({4-[(tetrahydro-2H-pyran-4-ylmethyl)amino]-3-[(trifluoromethyl)sulfonyl]phenyl}sulfonyl)benzamide], the EC50 was determined as 1690 nM. On to `CC1(C)CCC(CN2CCN(c3ccc(C(=O)NS(=O)(=O)c4cc(F)c(F)c(OCC5(F)CCOCC5)c4)c(Oc4cnc5[nH]ccc5c4)c3)CC2)=C(c2ccc(Cl)cc2)C1` [Example 313, 4-(4-{[2-(4-chlorophenyl)-4,4-dimethylcyclohex-1-en-1-yl]methyl}piperazin-1-yl)-N-({3,4-difluoro-5-[(4-fluorotetrahydro-2H-pyran-4-yl)methoxy]phenyl}sulfonyl)-2-(1H-pyrrolo[2,3-b]pyridin-5-yloxy)benzamide], for which the EC50 was greater than 1000 nM. Same read-out and setting: the same measure for `COCCN1CCOC(CNc2ccc(S(=O)(=O)NC(=O)c3ccc(N4CCN(CC5=C(c6ccc(Cl)cc6)CC(C)(C)CC5)CC4)cc3Oc3cnc4[nH]ccc4c3)cc2[N+](=O)[O-])C1` (centres unmarked) [Example 135, 4-(4-{[2-(4-chlorophenyl)-4,4-dimethylcyclohex-1-en-1-yl]methyl}piperazin-1-yl)-N-{[4-({[4-(2-methoxyethyl)morpholin-2-yl]methyl}amino)-3-nitrophenyl]sulfonyl}-2-(1H-pyrrolo[2,3-b]pyridin-5-yloxy)benzamide]: 2.37 nM. The same measure, in the same setting: the same measure for `CC1(C)CCC(CN2CCN(c3ccc(C(=O)NS(=O)(=O)c4cnc(OCC5(F)CCOCC5)c(C#N)c4)c(Oc4cnc5[nH]ccc5c4)c3)CC2)=C(c2ccc(Cl)cc2)C1` [Example 56, 4-(4-{[2-(4-chlorophenyl)-4,4-dimethylcyclohex-1-en-1-yl]methyl}piperazin-1-yl)-N-({5-cyano-6-[(4-fluorotetrahydro-2H-pyran-4-yl)methoxy]pyridin-3-yl}sulfonyl)-2-(1H-pyrrolo[2,3-b]pyridin-5-yloxy)benzamide]: 86.5 nM; for `CC1(C)CCC(CN2CCN(c3ccc(C(=O)NS(=O)(=O)c4ccc(NC[C@H]5CC[C@H](O)C5)c([N+](=O)[O-])c4)c(Oc4cnc5[nH]ccc5c4)c3)CC2)=C(c2ccc(Cl)cc2)C1` [Example 157, 4-(4-{[2-(4-chlorophenyl)-4,4-dimethylcyclohex-1-en-1-yl]methyl}piperazin-1-yl)-N-{[4-({[(1S,3S)-3-hydroxycyclopentyl]methyl}amino)-3-nitrophenyl]sulfonyl}-2-(1H-pyrrolo[2,3-b]pyridin-5-yloxy)benzamide]: 10.9 nM; for `CC1(C)CCC(CN2CCN(c3ccc(C(=O)NS(=O)(=O)c4ccc(N[C@H]5CC[C@H](N(C6CC6)C6CC6)CC5)c([N+](=O)[O-])c4)c(Oc4cnc5[nH]ccc5c4)c3)CC2)=C(c2ccc(Cl)cc2)C1` [Example 100, Trans-4-(4-{[2-(4-chlorophenyl)-4,4-dimethylcyclohex-1-en-1-yl]methyl}piperazin-1-yl)-N-[(4-{[4-(dicyclopropylamino)cyclohexyl]amino}-3-nitrophenyl)sulfonyl]-2-(1H-pyrrolo[2,3-b]pyridin-5-yloxy)benzamide]: 137 nM. Same read-out and setting: next, `O=C(NS(=O)(=O)c1ccc(NCC2CN(C3CC3)CCO2)c([N+](=O)[O-])c1)c1ccc(N2CCN(CC3=C(c4ccc(Cl)cc4)CC4(CC3)CC4)CC2)cc1Oc1cnc2[nH]ccc2c1` (centres unmarked) [Example 330, 4-(4-{[5-(4-chlorophenyl)spiro[2.5]oct-5-en-6-yl]methyl}piperazin-1-yl)-N-[(4-{[(4-cyclopropylmorpholin-2-yl)methyl]amino}-3-nitrophenyl)sulfonyl]-2-(1H-pyrrolo[2,3-b]pyridin-5-yloxy)benzamide]: 9.78 nM. As to `CC1(C)CCC(CN2CCN(c3ccc(C(=O)NS(=O)(=O)c4ccc(NCC5CCN(C6CC6)CC5)c([N+](=O)[O-])c4)c(Oc4cnc5[nH]ccc5c4)c3)CC2)=C(c2ccc(Cl)cc2)C1` [Example 164, 4-(4-{[2-(4-chlorophenyl)-4,4-dimethylcyclohex-1-en-1-yl]methyl}piperazin-1-yl)-N-[(4-{[(1-cyclopropylpiperidin-4-yl)methyl]amino}-3-nitrophenyl)sulfonyl]-2-(1H-pyrrolo[2,3-b]pyridin-5-yloxy)benzamide], the EC50 came to 14.8 nM. Regarding `CC1(C)CCC(CN2CCN(c3ccc(C(=O)NS(=O)(=O)c4ccc(NCc5ccc(OC(F)F)cc5)c([N+](=O)[O-])c4)c(Oc4cnc5[nH]ccc5c4)c3)CC2)=C(c2ccc(Cl)cc2)C1` [Example 177, 4-(4-{[2-(4-chlorophenyl)-4,4-dimethylcyclohex-1-en-1-yl]methyl}piperazin-1-yl)-N-[(4-{[4-(difluoromethoxy)benzyl]amino}-3-nitrophenyl)sulfonyl]-2-(1H-pyrrolo[2,3-b]pyridin-5-yloxy)benzamide], the EC50 worked out at 159 nM. The same measure, in the same setting: next, `COC1(C)CCC(c2ccc(Cl)cc2)=C(CN2CCN(c3ccc(C(=O)NS(=O)(=O)c4ccc(NCC5CCOCC5)c([N+](=O)[O-])c4)c(Oc4cnc5[nH]ccc5c4)c3)CC2)C1` (centres unmarked) [Example 378, 4-(4-{[2-(4-chlorophenyl)-5-methoxy-5-methylcyclohex-1-en-1-yl]methyl}piperazin-1-yl)-N-({3-nitro-4-[(tetrahydro-2H-pyran-4-ylmethyl)amino]phenyl}sulfonyl)-2-(1H-pyrrolo[2,3-b]pyridin-5-yloxy)benzamide]: 6.76 nM; `CC1(C)CCC(CN2CCN(c3ccc(C(=O)NS(=O)(=O)c4ccc(NCC5CN(C6CC6)CCO5)c([N+](=O)[O-])c4)c(Oc4cnc5[nH]ccc5c4)c3)CC2)=C(c2ccc(Cl)cc2)C1` (centres unmarked) [Example 218, 4-(4-{[2-(4-chlorophenyl)-4,4-dimethylcyclohex-1-en-1-yl]methyl}piperazin-1-yl)-N-[(4-{[(4-cyclopropylmorpholin-2-yl)methyl]amino}-3-nitrophenyl)sulfonyl]-2-(1H-pyrrolo[2,3-b]pyridin-5-yloxy)benzamide]: 7.29 nM; `CC1(C)CCC(CN2CCN(c3ccc(C(=O)NS(=O)(=O)c4ccc(OCC5(F)CCC(N(CCC#N)C6CC6)CC5)c([N+](=O)[O-])c4)c(Oc4cnc5[nH]ccc5c4)c3)CC2)=C(c2ccc(Cl)cc2)C1` (centres unmarked) [Example 363, 4-(4-{[2-(4-chlorophenyl)-4,4-dimethylcyclohex-1-en-1-yl]methyl}piperazin-1-yl)-N-{[4-({4-[(2-cyanoethyl)(cyclopropyl)amino]-1-fluorocyclohexyl}methoxy)-3-nitrophenyl]sulfonyl}-2-(1H-pyrrolo[2,3-b]pyridin-5-yloxy)benzamide]: 26.4 nM.

The same assay, now with this note: Homo sapiens, RS4-11, Table 5, direct comparison Z=N with corresponding analogs Z=C; read-out: RS4; 11 EC50.
Take `CC1(C)CCC(CN2CCN(c3ccc(C(=O)NS(=O)(=O)c4ccc(NCC5CCOCC5)c(S(=O)(=O)C(F)(F)F)c4)c(Oc4ccc5[nH]ccc5c4)c3)CC2)=C(c2ccc(Cl)cc2)C1` [Example 94, 4-(4-{[2-(4-chlorophenyl)-4,4-dimethylcyclohex-1-en-1-yl]methyl}piperazin-1-yl)-2-(1H-indol-5-yloxy)-N-({4-[(tetrahydro-2H-pyran-4-ylmethyl)amino]-3-[(trifluoromethyl)sulfonyl]phenyl}sulfonyl)benzamide]: the EC50 worked out at 1690 nM.

These data come from patent US20240043404A1 (AbbVie Inc., priority 2009, published 2024).
